Earlier results, collected in patent EP2361081B1, “MULTI PORTION INTRA-ORAL DOSAGE FORM AND USE THEREOF” (McNeil AB, priority 2008, dated 2010).
Where two headings read alike, the source gives them in different places. Peptide text beside a SMILES is read from it.

Columns and labels:
[1] = pKa value lying in interval 8 - 9,6; taken from Handbook of Chemistry and Physics, 85th edition
[2] = stated in the context of absorption from the oral cavity
[3] = in water; footnote b) = low or uncertain value, taken from Handbook of Chemistry and Physics, 85th edition

| Compound | pKa value (in interval 8 - 9,6) [1] | Solubility in water, g/kg [3] | other results |
| --- | --- | --- | --- |
| NC(=O)C[C@H](N)C(=O)O [Aspargine] | 8,73 |  |  |
| N[C@@H](CS(=O)(=O)O)C(=O)O [Cysteic acid] | 8,70 | Very soluble |  |
| N[C@@H](CCC(=O)O)C(=O)O [Glutamic acid] | 9,58 |  |  |
| NC(=O)CC[C@H](N)C(=O)O [Glutamine] | 9,00 |  | Solubility in water [3]: 42 g/kg |
| NCC(=O)O [Glycine] | 9,58 |  |  |
| N[C@@H](Cc1c[nH]cn1)C(=O)O [Histidine] | 9,09 | 43,5 g/kg |  |
| CC[C@H](C)[C@H](N)C(=O)O [Isoleucine] | 9,60 | 34,2 g/kg |  |
| CC(C)C[C@H](N)C(=O)O [Leucine] |  | 22,0 g/kg |  |
| NCCCC[C@H](N)C(=O)O [Lysine] | 9,16 |  | Solubility in water, g/kg: Very soluble ^a)b) |
| CSCC[C@H](N)C(=O)O [Methionine] | 9,08 |  | Solubility in water [3]: 56 g/kg |
| NCC(=O)NCC(=O)O [N-Glycylglycine] (H-Gly-Gly-OH) | 8,10 |  |  |
| N[C@@H](Cc1ccccc1)C(=O)O [Phenylalanine] | 9,09 | 27,9 g/kg |  |
| N[C@@H](CO)C(=O)O [Serine] | 9,05 |  |  |
| C[C@@H](O)[C@H](N)C(=O)O [Threonine] | 8,96 |  |  |
| CC(C)[C@H](N)C(=O)O [Valine] | 9,52 | 88,5 g/kg |  |
| CN1CCCC1c1cccnc1 (stereo not drawn) [nicotine, 3-(1-methyl-2-pyrrolidinyl)-pyridine] |  |  | pKa of nicotine [2]: about 7.8 |
